Measured values reported in patent US5696108A, “Protein kinase C inhibitors” (Eli Lilly and Company, priority 1996, dated 1997).
pIC50: −log10 of the molar value. Structures can show the parent of a compound that is named as a salt.

Assays:
Conditions in all cases: Table 1
[1] = molecular target: PKC-β1 (Homo sapiens, UniProt P05771); test: PKC Enzyme Assay, beta-1 isozyme; type: biochemical
Procedure: (§1) PKC enzymes=alpha, beta I, beta II, gamma, delta, epsilon, eta and zeta.
(§2) Assay components in a total volume of 250 μL are as follows:
(§3) For all the enzymes either histone type HL (Worthington) or myelin basic protein is used as substrate. The assay is started by addition of protein kinase C enzyme incubated at 30° C. for 10 minutes and stopped by adding 0.5 mL of cold trichloroacetic acid (Amresco) followed by 100 μL of 1 mg/mL bovine serum albumin (Sigma, St. Louis, Mo.). The precipitate is collected by vacuum filtration on glass fiber filters employing a TOMTEC™ filtration system and quantified by counting in a beta scintillation counter.

[2] = molecular target: T1, casein protein kinase II (Rattus norvegicus, UniProt P19139); test: Casein Protein Kinase II Assay (CK-II); type: biochemical
T1 construct: isolated from rat brain homogenate; from tissue; host or cells: rat brain homogenate
T1 sequence (P19139 whole entry): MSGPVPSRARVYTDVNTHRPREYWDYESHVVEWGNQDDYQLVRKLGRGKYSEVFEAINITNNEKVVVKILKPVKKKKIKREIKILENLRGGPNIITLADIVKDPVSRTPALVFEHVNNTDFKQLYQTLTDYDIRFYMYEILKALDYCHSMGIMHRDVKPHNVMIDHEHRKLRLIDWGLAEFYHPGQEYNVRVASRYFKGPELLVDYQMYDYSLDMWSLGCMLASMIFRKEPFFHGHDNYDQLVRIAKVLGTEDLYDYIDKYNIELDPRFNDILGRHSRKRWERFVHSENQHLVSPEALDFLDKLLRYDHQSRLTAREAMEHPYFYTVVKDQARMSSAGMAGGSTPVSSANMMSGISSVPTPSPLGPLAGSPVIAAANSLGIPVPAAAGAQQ
T1 sequence (P67874 2-215 partner limits assumed): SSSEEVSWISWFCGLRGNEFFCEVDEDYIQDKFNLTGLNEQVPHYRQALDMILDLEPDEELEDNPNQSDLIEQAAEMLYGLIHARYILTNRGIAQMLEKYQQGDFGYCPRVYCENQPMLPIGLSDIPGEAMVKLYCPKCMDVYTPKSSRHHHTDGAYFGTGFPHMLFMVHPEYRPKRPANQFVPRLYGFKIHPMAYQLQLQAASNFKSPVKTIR
Procedure: Casein Protein Kinase II Assay (CK-II)
The Casein Protein Kinase II Assay is described in Neurochem. […] The assay components are in a total volume of 250 μL: 20 mM Tris-HCl, pH 7.5, 5 mM sodium fluoride, 50 mg/mL Casein (Sigma, St. Louis, Mo.), 10 mM magnesium chloride (Sigma, St. Louis, Mo.), 10 μL DMSO or DMSO/inhibitor and 30 μm (gamma-32P) ATP (DuPont). Initiation of the reaction is performed by addition of casein protein kinase II (isolated from rat brain homogenate), incubated at room temperature for 10 minutes and stopped by the addition of 0.5 mL ice cold Trichloroacetic acid (Amresco) followed by 100 μL of 1 mg/mL bovine serum albumin (Sigma, St. Louis, Mo.). The precipitate is collected by vacuum filtration on glass fiber filters and quantified by counting in a beta scintillation counter.
Assay components in order of addition
10 μL or DMSO or DMSO/inhibitor
25 μL of AT32P in 300 μM magnesium chloride
40 μL of enzyme (undiluted)
Buffer prepared as follows:
(Final volume=3.5 mL: amount of 20 assays)

[3] = molecular target: T2, cAMP-dependent kinase catalytic subunit (Bos taurus, UniProt P00517); test: cAMP-Dependent protein Kinase Catalytic Subunit Assay; type: biochemical, bovine
T2 construct: purchased Sigma, St. Louis, Mo; host or cells: bovine heart
Procedure: cAMP-Dependent protein Kinase Catalytic Subunit Assay (PEA) The Assay components are in a total volume of 250 μL: 20 mM HEPES (Sigma, St. Louis, Mo.) buffer pH 7.5, 200 μg/mL histone type HL (Worthington), 10 mM magnesium chloride (Sigma, St. […] The reaction is initiated by addition of bovine heart cAMP-dependent kinase catalytic subunit (Sigma, St. Louis, Mo.), incubated to 30° C. for 10 minutes and stopped by adding 0.5 mL ice cold Trichloroacetic acid (Amresco) followed by 100 μL of 1 mg/mL bovine serum albumin (Sigma). The precipitate is collected by vacuum filtrated on glass fiber filters employing a TOMTEC™ and quantified by counting in a beta scintillation counter. This assay is done identical to the protein kinase C (PKC) enzyme assay except that no phospholipids or diacylglycerol are employed in the assay and the histone substrate is specific for the cAMP-dependent catalytic subunit enzyme.

[4] = molecular target: PKC-α (Homo sapiens, UniProt P17252); test: PKC Enzyme Assay, alpha isozyme; type: biochemical
Procedure: as §1, §2, §3

[5] = molecular target: PKC-β2 (Homo sapiens, UniProt P05771); test: PKC Enzyme Assay, beta-2 isozyme; type: biochemical
PKC-β2, sequence (P05771 1-673 isoform P05771-2): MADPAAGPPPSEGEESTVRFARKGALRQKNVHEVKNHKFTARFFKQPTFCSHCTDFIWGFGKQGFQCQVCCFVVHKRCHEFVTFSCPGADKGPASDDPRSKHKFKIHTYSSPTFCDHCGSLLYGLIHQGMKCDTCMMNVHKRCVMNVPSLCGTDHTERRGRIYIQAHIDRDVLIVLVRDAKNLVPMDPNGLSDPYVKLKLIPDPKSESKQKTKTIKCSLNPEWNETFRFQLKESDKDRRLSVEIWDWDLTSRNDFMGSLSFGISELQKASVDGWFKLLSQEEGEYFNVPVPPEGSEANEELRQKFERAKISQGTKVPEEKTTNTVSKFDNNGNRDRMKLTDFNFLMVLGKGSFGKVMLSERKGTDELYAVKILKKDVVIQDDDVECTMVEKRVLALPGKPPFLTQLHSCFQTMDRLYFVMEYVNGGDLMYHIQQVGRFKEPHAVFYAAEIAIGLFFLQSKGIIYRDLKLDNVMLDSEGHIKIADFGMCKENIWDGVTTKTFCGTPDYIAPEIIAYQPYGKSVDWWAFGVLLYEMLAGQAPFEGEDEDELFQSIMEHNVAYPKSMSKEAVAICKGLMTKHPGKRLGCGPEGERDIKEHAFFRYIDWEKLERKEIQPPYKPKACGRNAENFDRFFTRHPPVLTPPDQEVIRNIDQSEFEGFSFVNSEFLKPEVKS
Procedure: as §1, §2, §3

[6] = molecular target: T3, src (Homo sapiens, UniProt P12931); test: Protein Tyrosine Kinase Assay (src); type: biochemical
T3 construct: purchased Onogene Science, Inc. PK02 and PK03
T3 sequence (P12931 whole entry, species assumed): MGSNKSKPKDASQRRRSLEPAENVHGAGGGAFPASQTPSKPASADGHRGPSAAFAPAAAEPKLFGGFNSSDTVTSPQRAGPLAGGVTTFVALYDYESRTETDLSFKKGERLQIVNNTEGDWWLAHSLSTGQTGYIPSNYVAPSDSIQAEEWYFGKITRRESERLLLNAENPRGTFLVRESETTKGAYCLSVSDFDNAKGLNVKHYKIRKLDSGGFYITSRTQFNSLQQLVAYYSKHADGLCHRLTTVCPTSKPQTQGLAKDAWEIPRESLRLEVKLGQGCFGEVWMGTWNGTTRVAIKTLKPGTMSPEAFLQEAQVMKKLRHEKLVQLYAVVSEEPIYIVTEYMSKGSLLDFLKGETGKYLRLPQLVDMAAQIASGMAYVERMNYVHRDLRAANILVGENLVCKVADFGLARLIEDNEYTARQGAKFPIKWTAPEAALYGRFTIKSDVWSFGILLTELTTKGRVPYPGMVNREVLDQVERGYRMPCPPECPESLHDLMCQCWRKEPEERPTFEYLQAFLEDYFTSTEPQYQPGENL
Procedure: Protein Tyrosine Kinase Assay (src)
The Assay components are the following:
4 μL DMSO or DMSO/inhibitor

[7] = molecular target: calcium calmodulin dependent protein kinase; test: Calcium Calmodulin Dependent Protein Kinase Assay (CAM); type: biochemical, rat
Procedure: Calcium Calmodulin Dependent Protein Kinase Assay (CAM)
The reaction is initiated by the addition of calcium calmodulin dependent protein kinase (isolated from rat brain homogenate), incubated at room temperature for 10 minutes and stopped by adding 0.5 mL ice cold trichloroacetic acid (Amresco) followed by 100 μL of 1 mg/mL bovine serum albumin (Sigma, St. Louis, Mo.). The precipitate is collected by vacuum filtration on glass fiber filters and quantified by counting in a beta scintillation counter.
25 μL calmodulin (250 μg/mL)
10 μL DMSO or DMSO/inhibitor

PKC-β1, sequence (P05771 whole entry): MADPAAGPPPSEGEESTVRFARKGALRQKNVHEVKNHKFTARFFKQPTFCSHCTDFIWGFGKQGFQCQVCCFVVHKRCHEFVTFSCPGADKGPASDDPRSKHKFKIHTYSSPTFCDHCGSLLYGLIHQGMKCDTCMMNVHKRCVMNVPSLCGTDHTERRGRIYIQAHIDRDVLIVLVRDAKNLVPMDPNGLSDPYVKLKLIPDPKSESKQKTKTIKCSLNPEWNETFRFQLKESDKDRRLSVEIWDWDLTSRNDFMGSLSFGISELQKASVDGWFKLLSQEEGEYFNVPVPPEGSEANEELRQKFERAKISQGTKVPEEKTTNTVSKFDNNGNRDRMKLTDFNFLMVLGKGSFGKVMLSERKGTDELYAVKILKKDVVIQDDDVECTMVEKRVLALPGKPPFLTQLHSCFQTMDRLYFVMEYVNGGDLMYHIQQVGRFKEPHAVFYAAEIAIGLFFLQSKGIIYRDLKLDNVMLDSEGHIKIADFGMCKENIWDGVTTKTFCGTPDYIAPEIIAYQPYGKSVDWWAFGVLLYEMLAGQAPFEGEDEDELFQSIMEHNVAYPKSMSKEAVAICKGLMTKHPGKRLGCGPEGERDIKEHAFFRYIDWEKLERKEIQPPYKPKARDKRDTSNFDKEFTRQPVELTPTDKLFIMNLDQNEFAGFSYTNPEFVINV

Row | pIC50 [1] | pIC50 [2] | pIC50 [3] | pIC50 [4] | pIC50 [5] | pIC50 [6] | pIC50 [7] | Structure (SMILES)
1 | 6.00 | < 5.00 | < 4.00 | < 4.00 | 5.70 | < 4.00 | < 5.00 | O=C1NC(=O)C2=C1c1cn(c3ccccc13)CCCC(COCc1ccccc1)CCn1cc2c2ccccc21 (racemic) [Example 30, (±)-3,4-[(N,N'-1,1'-(3"-(benzyloxymethylene)hexane)-bis-(3,3'-indolyl)]-1H-pyrrole-2,5-dione]
2 | 6.40 | < 4.00 | < 4.00 | 5.40 | 6.70 | < 4.00 | < 4.00 | O=C1NC(=O)C2=C1c1cn(c3ccccc13)CCCOC(CO)CCn1cc2c2ccccc21 (stereo not shown) [Example 2, 3,4-[(N,N'-1,1')-((3"-propoxy)-3'"(O)-4'"(hydroxy)butane)-bis-(3,3'-indolyl)]-1(H)-pyrrole-2,5-dione]
3 | 7.70 | < 4.00 |  | 6.52 | 8.10 | 4.43 | 5.52 | NCC1CCn2cc(c3ccccc32)C2=C(C(=O)NC2=O)c2cn(c3ccccc23)CCO1 (stereo not shown) [Example 4, 3,4-[(N,N'-1,1'-((2'"-ethoxy)-3'"(O)-4'"-(amino)-butane)-bis-(3,3'-indolyl)]-1(H)-pyrrole-2,5-dione trifluoroacetate salt]
4 | 8.30 | < 4.00 | < 4.00 | 6.52 | 7.68 | 4.48 | 6.16 | NC[C@H]1CCn2cc(c3ccccc32)C2=C(C(=O)NC2=O)c2cn(c3ccccc23)CCO1 [Example 4r]
5 | 7.32 | < 4.00 | < 4.00 | 5.89 | 7.48 | 4.20 | 5.60 | NC[C@@H]1CCn2cc(c3ccccc32)C2=C(C(=O)NC2=O)c2cn(c3ccccc23)CCO1 [Example 4s]
6 | 6.46 | < 4.00 | < 4.00 | 5.52 | 6.80 | 4.24 | 4.59 | NCC1CCn2cc(c3ccccc32)C2=C(C(=O)NC2=O)c2cn(c3ccccc23)CCCO1 (stereo not shown) [Example 9]
7 | 6.52 | < 4.00 | < 4.00 | 5.30 | 7.00 | < 4.00 | 4.70 | CN(C)CC1CCn2cc(c3ccccc32)C2=C(C(=O)NC2=O)c2cn(c3ccccc23)CCCO1 (stereo not shown) [Example 11]
8 | 7.49 | < 4.00 | < 4.00 | 6.32 | 7.52 | < 4.00 | 5.66 | CC(=O)NC[C@H]1CCn2cc(c3ccccc32)C2=C(C(=O)NC2=O)c2cn(c3ccccc23)CCO1 [Example 19r]
9 |  | < 4.00 | < 4.00 | 6.05 |  | 4.13 | 5.14 | O=C1NC(=O)C2=C1c1cn(c3ccccc13)CCO[C@@H](CN1CCCC1)CCn1cc2c2ccccc21 [Example 20r]
10 |  | < 4.00 | < 4.00 | 5.52 |  | 4.80 | 5.17 | O=C1NC(=O)C2=C1c1cn(c3ccccc13)CCO[C@H](CN1CCCC1)CCn1cc2c2ccccc21 [Example 20s]
11 | 6.74 | < 4.00 | < 4.00 | 4.17 | 7.30 | < 4.00 |  | O=C1NC(=O)C2=C1c1cn(c3ccccc13)CCO[C@@H](CNS(=O)(=O)c1ccccc1)CCn1cc2c2ccccc21 [Example 21r]
12 | 7.15 | < 4.00 |  | 6.00 | 7.10 | < 4.00 | 5.70 | O=C1NC(=O)C2=C1c1cn(c3ccccc13)CCCCCCn1cc2c2ccccc21 [Example 28, 3,4-[(N,N'-1,1'-hexane)-bis-(3,3'-indolyl)]-1H-pyrrole-2,5-dione]
13 | 7.70 | < 4.00 | < 4.00 | 6.52 | 7.52 | < 4.00 | 6.33 | O=C1NC(=O)C2=C1c1cn(c3ccccc13)CCCC(CO)CCn1cc2c2ccccc21 (stereo not shown) [Example 31, 3,4-[(N,N'-1,1'-(3"-(hydroxy)methylene)hexane)-bis-(3,3'-indolyl)]-1H-pyrrole-2,5-dione]
14 | 8.00 | < 4.00 | < 4.00 | 7.00 | 8.10 | 4.14 | 6.05 | NCC1CCCn2cc(c3ccccc32)C2=C(C(=O)NC2=O)c2cn(c3ccccc23)CC1 (stereo not shown) [Example 32, 3,4-[(N,N'-1,1'-(3"-aminomethylene)-hexane)-bis-(3,3'-indolyl)]-1H-pyrrole-2,5-dione]
15 | 7.00 | < 4.00 |  | 6.00 | 7.00 | < 4.00 | 5.40 | O=C1NC(=O)C2=C1c1cn(c3ccccc13)CCCC(CNCc1ccccc1)CCn1cc2c2ccccc21 (stereo not shown) [Example 34, 3,4-[(N,N'-1,1'-(3"-(N-benzylamino)methylene)-hexane)-bis-(3,3'-indolyl)]-1H-pyrrole-2,5-dione trifluoroacetate salt]
16 | 5.52 | < 4.00 |  | 5.05 | 5.70 | < 4.00 | 4.09 | O=C1NC(=O)C2=C1c1cn(c3ccccc13)CCCC(CN(Cc1ccccc1)Cc1ccccc1)CCn1cc2c2ccccc21 (stereo not shown) [Example 35, 3,4-[(N,N'-1,1 '-(3"-(N,N-dibenzylamino)methylene)-hexane)-bis-(3,3'-indolyl)]-1H-pyrrole-2,5-dione trifluoroacetate salt]
17 | 8.30 | < 4.00 | < 4.00 | 6.35 | 7.85 | 4.21 | 5.15 | O=C1NC(=O)C2=C1c1cn(c3ccccc13)CCC[C@@H](CN1CCCC1)CCn1cc2c2ccccc21 [Example 36r, (R)-3,4-[(N,N'-1,1'-(3"-(N-pyrrolidino)methylene)-hexane)-bis-(3,3"-indolyl)]-1H-pyrrole-2,5-dione hydrochloride salt]
18 | 7.30 | < 4.00 | < 4.00 | 6.15 | 7.40 | < 4.00 | 5.30 | COCC1CCCn2cc(c3ccccc32)C2=C(C(=O)NC2=O)c2cn(c3ccccc23)CC1 (stereo not shown) [Example 37, 3,4-[(N,N'-1,1'-(3"-methoxymethylene)-hexane)-bis-(3,3'-indolyl)]-1H-pyrrole-2,5-dione]
19 |  | < 4.00 | < 4.00 | 6.22 |  | 5.36 | 5.30 | CN(C)CC1CCCn2cc(c3ccccc32)C2=C(C(=O)NC2=O)c2cn(c3ccccc23)CC1 (stereo not shown) [Example 40]
20 |  | < 4.00 | < 4.00 | 6.52 |  | 4.15 | 5.10 | CN(C)C[C@@H]1CCCn2cc(c3ccccc32)C2=C(C(=O)NC2=O)c2cn(c3ccccc23)CC1 [Example 40r, (R)-3,4-[(N,N'-1,1'-(3"-(N,N-dimethylamino)methylene)-hexane)-bis-(3,3'-indolyl)]-1H-pyrrole-2,5-dione hydrochloride salt]
21 | 7.40 | < 4.00 |  | 6.40 | 7.52 | < 4.00 | 6.22 | O=C1NC(=O)C2=C1c1cn(c3ccccc13)CCCCCn1cc2c2ccccc21 [Example 43]
